{"source": "patent US4092426A", "about": "“Novel aminobenzoic acid derivatives, process for preparing the same and pharmaceutical composition containing the same” (Chugai Seiyaku Kabushiki Kaisha, priority 1975, dated 1978)", "key": {"triglyceride in liver": {"system": "triglyceride in liver", "test": "Action for decreasing triglyceride in liver (ethanol-induced)", "type": "in vivo, Sprague Dawley strain female rats", "details": "rat, oral 100 mg/kg, 30 min before ethanol 6 g/kg; 24 h; 100 mg/kg", "method": "Sprague Dawley strain female rats each weighing 170 - 200 g which had been fasted for 15 hours were divided into groups of 4 rats each. The rats were orally administered a different test compound in a dose of 100 mg/kg, and 30 minutes after the administration, orally administered ethanol in a dose of 6 g/kg. Twenty-four hours after the administration of ethanol, the liver of each rat was taken out and neutral lipid level in the liver was measured in a conventional manner to calculate the ratio of preventing an increase in triglyceride content in the liver. For a control group, ethanol and, for the other control group, a glucose aqueous solution equivalent in calorific value to the same amount of ethanol were used and the same manner as those of test groups, and for the positive control group, commercially available 2-mercaptopropionylglycine was used instead of the test compound.\n*The % prevention was calculated by the following"}, "Sarcoma-180": {"system": "Sarcoma-180", "test": "growth of Sarcoma-180 tumor cells in vitro", "type": "cell-based"}, "[1]": {"system": "Salmonella enteritidis TO-1", "test": "Activity for Protecting from Infection by Salmonellae, with streptomycine", "type": "in vivo", "details": "mouse; oral 2 mg/head; with streptomycine 0.5 mg/head s.c.", "experimental": "As test animals, ddY strain male mice (5 week old) which were divided into groups of 7 members each were used. Each mouse was intraperitoneally inoculated with 10^5 Salmonella enteritidis TO-1, and 3 hours after the inoculation, was subcutaneously administered one shot of streptomycine in a dose of 0.5 mg/head."}, "[2]": {"system": "plaque forming cells (PFC) in the spleen", "test": "Activity for Recovering Immune Depletion by cortisone: plaque forming cells (PFC) in the spleen", "type": "in vivo, IV CS strain male mice", "details": "10 mg/kg oral, cortisone-treated", "method": "(§1) As test animals, IV CS strain male mice (5 week old) were used by dividing them into groups of 5 members each. Each mouse was intraperitoneally administered with cortisone in a dose of 60 mg/kg once a day for 5 days. Three days after the first administration, the sensitization with an antigen, sheep red blood cell (SRBC), was made by injecting the antigen into the mouse through the tail vein. Each mouse was orally administered with the test compound, disodium salt of N-2'-carboxyphenyl-4-chloroanthranilic acid, a day after the sensitization. Five days after the sensitization, the number of plaque forming cells (PFC) in the spleen was measured in a usual manner."}, "antibody in blood": {"system": "antibody in blood", "test": "Titer of antibody in blood of cortisone-treated mice (hemolysing method)", "type": "in vivo, IV CS strain male mice", "method": "as §1\n* Titer of antibody in blood is indicated by a dilution degree of 50%"}, "[3]": {"system": "Pseudomonas aeruginosa Pa-II", "test": "Activity for Protecting from Infection by Bucillus Pyocyaneous, with carbenicillin", "type": "in vivo", "details": "mouse; with carbenicillin", "method": "As test animals, ddY strain male mice (5 week old) which were divided into groups of 9 members each were used. Each mouse was intraperitoneally administered with 10^6 Pseudomonas aeruginosa Pa-II, and 1.5 hours after the administeration, subcutaneously administered one shot of carbenicillin, an antibiotic. The test compound, disodium salt of N-2'-carboxyphenyl-4-chloroanthranilic acid, was orally administered once a day in a dose of 2 mg/head one and two days before the inoculation, respectively. The activity of the test compound was evaluated by observing the test animals for 54 hours after the inoculation."}, "[4]": {"system": "Pseudomonas aeruginosa Pa-II", "test": "Activity for Protecting from Infection by Bucillus Pyocyaneous", "type": "in vivo", "details": "oral 2 mg/head; for Survival Terms: individual animals", "excerpt": "As test animals, ddY strain male mice (5 week old) which were divided into groups of 7 members each were used. Each mouse was intraperitoneally inoculated with bucillus pyocyaneous, Pseudomonas aeruginosa Pa-II."}}, "note": "Counter-ions that a name gives are not always drawn."}
{"smiles": "O=C(O)c1ccccc1Nc1cc(Cl)ccc1C(=O)O", "note": "[disodium salt of N-2'-carboxyphenyl-4-chloroanthranilic acid]", "values": [{"measurement": "% Prevention (of increase in triglyceride content in the liver)", "setting": "triglyceride in liver", "value": 63.6, "unit": "%"}, {"measurement": "direct antitumor activity on Sarcoma-180 cells", "setting": "Sarcoma-180; directly on the cells", "value": "no antitumor activity directly on the cells"}, {"measurement": "growth of Sarcoma-180 cells in vitro", "setting": "Sarcoma-180; in vitro", "value": "does not suppress the growth"}, {"measurement": "bacteriocidal activity of the antibiotic with the test compound", "setting": "[1]", "value": "improved bacteriocidal activity"}, {"measurement": "number of PFC", "setting": "[2]", "value": "significantly increased"}, {"measurement": "Titer of Antibody (dilution degree of 50% hemolysis)", "setting": "antibody in blood; Cortisone + Test Compound (10 mg/kg)", "value": "10^10"}, {"measurement": "Titer of Antibody (dilution degree of 50% hemolysis)", "setting": "antibody in blood; Cortisone + Test Compound (50 mg/kg)", "value": "10^6"}, {"measurement": "bacteriocidal activity of the antibiotic with the test compound", "setting": "[3]", "value": "improved bacteriocidal activity"}, {"measurement": "Survival Terms", "setting": "[4]; 2 × 10^4 bacteria/head, mouse, S: survival at 54 hours", "value": "S,S,S,S,S and S,S"}, {"measurement": "Dead Animal/Test Animal", "setting": "[4]; 2 × 10^4 bacteria/head, control 1/7", "value": "0/7"}, {"measurement": "activity for protecting from the bacterial infection", "setting": "[4]; 2 × 10^5 bacteria per head", "value": "activity of the test compound for protecting from the bacterial infection was observed"}, {"measurement": "Survival Terms", "setting": "[4]; 2 × 10^5 bacteria/head, mouse, S: survival at 54 hours", "value": "S,S"}, {"measurement": "Dead Animal/Test Animal", "setting": "[4]; 2 × 10^5 bacteria/head, control 6/7", "value": "1/7"}, {"measurement": "Survival Terms", "setting": "[4]; 2 × 10^6 bacteria/head, mouse", "value": "29,29 hours"}, {"measurement": "Dead Animal/Test Animal", "setting": "[4]; 2 × 10^6 bacteria/head, control 7/7", "value": "7/7"}, {"measurement": "effect on bacillary toxin", "setting": "[4]; mouse", "value": "acts to lower the bacillary toxin"}]}
